compound: CC1(C)CCC(CN2CCN(c3ccc(C(=O)NS(=O)(=O)c4ccc(NCC5CCOCC5)c([N+](=O)[O-])c4)c(Oc4cnc5[nH]ccc5c4)c3)CC2)=C(c2ccc(Cl)cc2)C1 [Venetoclax] + CC(=O)Nc1cccc(-n2c(=O)n(C3CC3)c(=O)c3c(Nc4ccc(I)cc4F)n(C)c(=O)c(C)c32)c1 [Trametinib] (partner 0.02 µM); experiment: relative viability (nuclei count vs DMSO), 5 days (fraction); higher = more cells survive; conditions: first compound 0.01 µM
Outline: (§1)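 Medians of duplicate plates are given as relative viability. That measure is the nuclei count in treated wells divided by the count in vehicle wells. Counts were taken on 4× images of lung cancer cell lines in 1536-well plates, 5 days after pin-tool dosing the day after seeding with one drug alone or a fixed anchor-drug dose plus five library-drug doses (not always all listed) in √10 steps.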

In order of falling relative viability:
1. NCI-H1651  0.88
2. LCLC-103H  0.714
3. RERF-LC-KJ  0.705
4. SK-LU-1  0.585
5. SW 1573  0.571
6. NCI-H727  0.363
7. HCC-366  0.358
8. NCI-H2009  0.346
9. EKVX  0.328
10. NCI-H2087  0.197

same assay, conditions: first compound 0.03162 µM

In order of falling relative viability:
1. NCI-H1651  0.89
2. RERF-LC-KJ  0.851
3. LCLC-103H  0.663
4. SW 1573  0.612
5. SK-LU-1  0.512
6. HCC-366  0.411
7. NCI-H727  0.392
8. EKVX  0.382
9. NCI-H2009  0.351
10. NCI-H2087  0.181

same assay, conditions: first compound 0.1 µM

In order of falling relative viability:
1. RERF-LC-KJ  0.873
2. NCI-H1651  0.804
3. LCLC-103H  0.635
4. SK-LU-1  0.522
5. SW 1573  0.486
6. NCI-H727  0.406
7. HCC-366  0.353
8. EKVX  0.302
9. NCI-H2009  0.292
10. NCI-H2087  0.178

same assay, conditions: first compound 0.3162 µM

In order of rising relative viability:
1. NCI-H2087  0.199
2. NCI-H2009  0.266
3. EKVX  0.335
4. HCC-366  0.383
5. NCI-H727  0.412
6. SK-LU-1  0.507
7. SW 1573  0.603
8. LCLC-103H  0.679
9. NCI-H1651  0.838
10. RERF-LC-KJ  0.886

same assay, conditions: first compound 1 µM

In order of rising relative viability:
1. NCI-H2087  0.257
2. NCI-H2009  0.264
3. EKVX  0.38
4. NCI-H727  0.386
5. HCC-366  0.407
6. SW 1573  0.545
7. SK-LU-1  0.587
8. LCLC-103H  0.654
9. RERF-LC-KJ  0.795
10. NCI-H1651  0.926

compound: CC1(C)CCC(CN2CCN(c3ccc(C(=O)NS(=O)(=O)c4ccc(NCC5CCOCC5)c([N+](=O)[O-])c4)c(Oc4cnc5[nH]ccc5c4)c3)CC2)=C(c2ccc(Cl)cc2)C1 [Venetoclax] + CC(C)C[C@H](NC(=O)[C@H](Cc1ccccc1)NC(=O)c1cnccn1)B(O)O [Bortezomib] (partner 0.002 µM); experiment: as above; conditions: first compound 0.01 µM
Outline: as §1

In order of rising relative viability:
1. NCI-H2087  0.808
2. HCC-366  0.854
3. SK-LU-1  0.937
4. NCI-H727  0.938
5. SW 1573  0.983
6. LCLC-103H  1.02
7. NCI-H1651  1.02
8. EKVX  1.04
9. RERF-LC-KJ  1.08
10. NCI-H2009  1.09

same assay, conditions: first compound 0.03162 µM

In order of falling relative viability:
1. RERF-LC-KJ  1.31
2. NCI-H727  1.19
3. SK-LU-1  1.19
4. SW 1573  1.06
5. HCC-366  1.05
6. EKVX  1.05
7. LCLC-103H  1.04
8. NCI-H1651  0.952
9. NCI-H2009  0.951
10. NCI-H2087  0.766

same assay, conditions: first compound 0.1 µM

In order of falling relative viability:
1. SK-LU-1  1.24
2. RERF-LC-KJ  1.19
3. LCLC-103H  1.16
4. EKVX  1.04
5. NCI-H1651  1.03
6. NCI-H2009  1.03
7. SW 1573  1.02
8. HCC-366  1.01
9. NCI-H2087  1
10. NCI-H727  0.833

same assay, conditions: first compound 0.3162 µM

In order of falling relative viability:
1. SK-LU-1  1.34
2. RERF-LC-KJ  1.22
3. SW 1573  1.18
4. EKVX  1.14
5. LCLC-103H  1.09
6. HCC-366  0.994
7. NCI-H2009  0.991
8. NCI-H1651  0.976
9. NCI-H727  0.862
10. NCI-H2087  0.83

same assay, conditions: first compound 1 µM

In order of falling relative viability:
1. LCLC-103H  1.1
2. SK-LU-1  1.08
3. RERF-LC-KJ  1.05
4. NCI-H2009  1.02
5. SW 1573  0.997
6. HCC-366  0.984
7. NCI-H727  0.888
8. NCI-H1651  0.885
9. EKVX  0.842
10. NCI-H2087  0.753

compound: CC1(C)CCC(CN2CCN(c3ccc(C(=O)NS(=O)(=O)c4ccc(NCC5CCOCC5)c([N+](=O)[O-])c4)c(Oc4cnc5[nH]ccc5c4)c3)CC2)=C(c2ccc(Cl)cc2)C1 [Venetoclax] + Nc1ncn([C@H]2C[C@H](O)[C@@H](CO)O2)c(=O)n1 [Decitabine] (partner 2 µM); experiment: as above; conditions: first compound 0.01 µM
Outline: as §1

In order of falling relative viability:
1. NCI-H727  0.918
2. LCLC-103H  0.767
3. RERF-LC-KJ  0.69
4. NCI-H1651  0.611
5. SK-LU-1  0.568
6. SW 1573  0.526
7. NCI-H2009  0.441
8. HCC-366  0.354
9. EKVX  0.33
10. NCI-H2087  0.316

same assay, conditions: first compound 0.03162 µM

In order of falling relative viability:
1. NCI-H727  1.07
2. SK-LU-1  0.738
3. RERF-LC-KJ  0.73
4. LCLC-103H  0.713
5. NCI-H1651  0.701
6. SW 1573  0.553
7. NCI-H2009  0.41
8. HCC-366  0.368
9. NCI-H2087  0.335
10. EKVX  0.327

same assay, conditions: first compound 0.1 µM

In order of rising relative viability:
1. NCI-H2087  0.267
2. EKVX  0.317
3. HCC-366  0.327
4. NCI-H2009  0.345
5. NCI-H1651  0.548
6. SW 1573  0.572
7. SK-LU-1  0.639
8. RERF-LC-KJ  0.69
9. LCLC-103H  0.733
10. NCI-H727  1.04

same assay, conditions: first compound 0.3162 µM

In order of rising relative viability:
1. NCI-H2087  0.23
2. NCI-H2009  0.352
3. HCC-366  0.366
4. EKVX  0.392
5. SW 1573  0.475
6. NCI-H1651  0.512
7. SK-LU-1  0.609
8. RERF-LC-KJ  0.666
9. NCI-H727  0.704
10. LCLC-103H  0.752

same assay, conditions: first compound 1 µM

In order of rising relative viability:
1. NCI-H2087  0.29
2. EKVX  0.35
3. NCI-H2009  0.358
4. HCC-366  0.382
5. SW 1573  0.437
6. SK-LU-1  0.549
7. RERF-LC-KJ  0.611
8. NCI-H1651  0.665
9. LCLC-103H  0.788
10. NCI-H727  0.891

compound: Cn1cnc2c(F)c(Nc3ccc(Br)cc3Cl)c(C(=O)NOCCO)cc21 [Selumetinib] + C[C@@H](Oc1cc(-c2cnn(C3CCNCC3)c2)cnc1N)c1c(Cl)ccc(F)c1Cl [Crizotinib] (partner 1 µM); experiment: as above; conditions: first compound 0.02 µM
Outline: as §1

In order of falling relative viability:
1. LCLC-103H  1.02
2. NCI-H2087  0.989
3. NCI-H1651  0.973
4. SK-LU-1  0.922
5. EKVX  0.909
6. RERF-LC-KJ  0.844
7. NCI-H2009  0.765
8. SW 1573  0.762
9. NCI-H727  0.558
10. HCC-366  0.492

same assay, conditions: first compound 0.06325 µM

In order of falling relative viability:
1. EKVX  0.889
2. SK-LU-1  0.881
3. LCLC-103H  0.846
4. RERF-LC-KJ  0.842
5. NCI-H1651  0.8
6. NCI-H2087  0.706
7. SW 1573  0.683
8. NCI-H2009  0.623
9. HCC-366  0.462
10. NCI-H727  0.348

same assay, conditions: first compound 0.2 µM

In order of rising relative viability:
1. HCC-366  0.308
2. NCI-H727  0.316
3. NCI-H2009  0.53
4. EKVX  0.614
5. SW 1573  0.639
6. NCI-H2087  0.665
7. RERF-LC-KJ  0.788
8. NCI-H1651  0.821
9. SK-LU-1  0.828
10. LCLC-103H  0.857

same assay, conditions: first compound 0.6325 µM

In order of falling relative viability:
1. LCLC-103H  0.948
2. RERF-LC-KJ  0.77
3. NCI-H1651  0.766
4. EKVX  0.639
5. SW 1573  0.597
6. SK-LU-1  0.46
7. NCI-H2087  0.434
8. NCI-H2009  0.336
9. NCI-H727  0.255
10. HCC-366  0.238
